Assay results taken from patent US12371454B2, “Cyclic peptide compound having Kras inhibitory action” (priority 2019, dated 2025).
pIC50: −log10 of the molar value. Positions of bridges follow the written chain, without caps; N, C: chain ends. Non-standard residues stand in square brackets, D forms with d. Residues, ends and D or L forms follow the SMILES beside them. *: point of attachment. hPhe(3-Cl-4-CF3) = N[C@@H](CCc1ccc(C(F)(F)F)c(Cl)c1)C(=O)O; hPhe(3-F,4-CF3) = N[C@@H](CCc1ccc(C(F)(F)F)c(F)c1)C(=O)O; NMePhe(4-CF3) = CN[C@@H](Cc1ccc(C(F)(F)F)cc1)C(=O)O; hPhe(4-CF3) = N[C@@H](CCc1ccc(C(F)(F)F)cc1)C(=O)O; NMeAbu(4,4,4-F3) = CN[C@@H](CC(F)(F)F)C(=O)O; NMePhe(4-Cl) = CN[C@@H](Cc1ccc(Cl)cc1)C(=O)O; NMePhe(2-OMe) = CN[C@@H](Cc1ccccc1OC)C(=O)O; NMePhe(4-Me) = CN[C@@H](Cc1ccc(C)cc1)C(=O)O; Phe(3-CN) = N#Cc1cccc(C[C@H](N)C(=O)O)c1; Phe(3-I) = N[C@@H](Cc1cccc(I)c1)C(=O)O; NMeAla(cPr) = CN[C@@H](CC1CC1)C(=O)O; NMeCha = CN[C@@H](CC1CCCCC1)C(=O)O; NMeChg = CN[C@H](C(=O)O)C1CCCCC1; NMeF = CN[C@@H](Cc1ccccc1)C(=O)O; hPhe = N[C@@H](CCc1ccccc1)C(=O)O; N(CH2CH2)2CF2 = FC1(F)CCN(*)CC1; NMeD = CN[C@@H](CC(=O)O)C(=O)O; NMeL = CN[C@@H](CC(C)C)C(=O)O; NMeV = CN[C@H](C(=O)O)C(C)C; d(β3hA) = C[C@@H](N)CC(=O)O; NMeA = CN[C@@H](C)C(=O)O; NMeAib = CNC(C)(C)C(=O)O; Nle = CCCC[C@H](N)C(=O)O; Piperidide = C1CCN(*)CC1; Pyrrolidide = C1CCN(*)C1; Ac5c = NC1(C(=O)O)CCCC1; Ac4c = NC1(C(=O)O)CCC1; Sar = CNCC(=O)O

Each compound was assayed against T1, Kras and SOS1 (biotin-tagged human Kras loaded with GDP, His-tagged human SOS1) (Homo sapiens, UniProt P01116, G12D) (assay: Protein-protein interaction inhibition between Kras and SOS1 (KrasGl2D-SOS PPI) using AlphaScreen). Details: AlphaScreen; biotin-tagged human Kras loaded with GDP, His-tagged human SOS1; read-out: KRAS G12D-SOS PPI IC50.
T1 construct: made in house; host or cells: E. coli (stated for Kras only)
T1 sequence (P01116 1-188 isoform P01116-2 G12D): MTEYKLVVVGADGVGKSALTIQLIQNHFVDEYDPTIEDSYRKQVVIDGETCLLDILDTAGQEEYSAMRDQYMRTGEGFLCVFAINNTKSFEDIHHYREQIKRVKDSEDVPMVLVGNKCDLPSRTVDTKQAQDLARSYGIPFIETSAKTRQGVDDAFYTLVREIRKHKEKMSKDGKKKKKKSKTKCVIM
Type: binding
Outline: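 Kras was produced in E. coli, purified, then loaded with GDP. It was paired via streptavidin acceptor beads with His-SOS1 held on nickel donor beads, and proximity signal at 520-620 nm was read after 680 nm illumination.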
In the case of `CC[C@H](C)[C@@H]1NC(=O)[C@H](CC(F)(F)F)N(C)C(=O)C[C@@H](C(=O)N2CCCC2)N(C)C(=O)[C@H](C2CCCCC2)N(C)C(=O)C2(CCCC2)NC(=O)[C@@H]2CCCN2C(=O)[C@H](CCc2ccc(C(F)(F)F)c(Cl)c2)NC(=O)CN(C)C(=O)[C@H](Cc2ccc(C(F)(F)F)cc2)N(C)C(=O)CN(C)C(=O)CN(C)C1=O` [Compound 245, (3S,9S,18S,21S,25S,28S,34S)-3-[2-[3-chloro-4-(trifluoromethyl)phenyl]ethyl]-28-cyclohexyl-7,10,13,16,22,26,29-heptamethyl-18-[(1S)-1-methylpropyl]-25-(pyrrolidine-1-carbonyl)-21-(2,2,2-trifluoroethyl)-9-[[4-(trifluoromethyl)phenyl]methyl]spiro[1,4,7,10,13,16,19,22,26,29,32-undecazabicyclo[32.3.0]heptatriacontane-31,1′-cyclopentane]-2,5,8,11,14,17,20,23,27,30,33-undecone] ([NMeAbu(4,4,4-F3)]I[Sar][Sar][NMePhe(4-CF3)][Sar][hPhe(3-Cl-4-CF3)]P[Ac5c][NMeChg][NMeD]-Pyrrolidide; lactam N-11), the pIC50 was 9.43. `CC[C@H](C)[C@@H]1NC(=O)[C@H](CC(C)C)N(C)C(=O)C[C@@H](C(=O)N2CCCCC2)N(C)C(=O)[C@H](CC(C)C)NC(=O)C(C)(C)N(C)C(=O)[C@H](Cc2ccc(OC)cc2)NC(=O)[C@H](Cc2cccc(I)c2)NC(=O)CN(C)C(=O)[C@H](Cc2ccc(C)cc2)N(C)C(=O)CN(C)C(=O)CN(C)C1=O` [Compound 247] ([NMeL]I[Sar][Sar][NMePhe(4-Me)][Sar][Phe(3-I)]Y(Me)[NMeAib]L[NMeD]-Piperidide; lactam N-11) gave a pIC50 of 8.15. `CC[C@H](C)[C@@H]1NC(=O)[C@H](CC2CC2)N(C)C(=O)C[C@@H](C)NC(=O)[C@H](C(C)C)N(C)C(=O)C2(CCCC2)NC(=O)[C@@H]2CCCN2C(=O)[C@H](CCc2ccc(C(F)(F)F)c(Cl)c2)NC(=O)CN(C)C(=O)[C@H](CC2CCCCC2)N(C)C(=O)CN(C)C(=O)CN(C)C1=O` [Compound 248] (cyclo([Ac5c][NMeV][d(β3hA)][NMeAla(cPr)]I[Sar][Sar][NMeCha][Sar][hPhe(3-Cl-4-CF3)]P)) showed a pIC50 of 7.51. Work on `CC[C@H](C)[C@@H]1NC(=O)[C@H](CC(C)C)N(C)C(=O)C[C@@H](C(=O)N2CCCCC2)N(C)C(=O)[C@H](C(C)C)N(C)C(=O)C2(CCC2)NC(=O)[C@H](CC(=O)N2CCC(F)(F)CC2)N(C)C(=O)[C@H](CCc2ccc(C(F)(F)F)c(Cl)c2)NC(=O)CN(C)C(=O)[C@H](CC2CCCCC2)N(C)C(=O)CN(C)C(=O)CN(C)C1=O` [Compound 251] ([NMeL]I[Sar][Sar][NMeCha][Sar][hPhe(3-Cl-4-CF3)][NMeD](N(CH2CH2)2CF2)[Ac4c][NMeV][NMeD]-Piperidide; lactam N-11) yielded a pIC50 of 8.42. Work on `CC[C@H](C)[C@@H]1NC(=O)[C@H](C)N(C)C(=O)C[C@@H](C(=O)N2CCCCC2)NC(=O)[C@H](CC(C)C)N(C)C(=O)[C@H](Cc2ccccc2)N(C)C(=O)[C@H](CC(C)C)NC(=O)[C@H](Cc2cccc(C#N)c2)NC(=O)CN(C)C(=O)[C@H](Cc2ccc(Cl)cc2)N(C)C(=O)CN(C)C(=O)CN(C)C1=O` [Compound 252] ([NMeA]I[Sar][Sar][NMePhe(4-Cl)][Sar][Phe(3-CN)]L[NMeF][NMeL]D-Piperidide; lactam N-11) yielded a pIC50 of 7.26. Compound `CC[C@H](C)[C@@H]1NC(=O)[C@H](CC(C)C)N(C)C(=O)C[C@@H](C)NC(=O)[C@H](CC(C)C)N(C)C(=O)C2(CCCC2)NC(=O)[C@@H]2CCCN2C(=O)[C@H](CCc2ccc(C(F)(F)F)cc2)NC(=O)CN(C)C(=O)[C@H](Cc2ccc(Cl)cc2)N(C)C(=O)CN(C)C(=O)CN(C)C1=O` [Compound 258] (cyclo([Ac5c][NMeL][d(β3hA)][NMeL]I[Sar][Sar][NMePhe(4-Cl)][Sar][hPhe(4-CF3)]P)) has a pIC50 of 7.44. `CCCC[C@@H]1NC(=O)[C@H](Cc2cccc(I)c2)NC(=O)CN(C)C(=O)[C@H](Cc2ccc(Cl)cc2)N(C)C(=O)CN(C)C(=O)CN(C)C(=O)[C@H]([C@@H](C)CC)NC(=O)[C@H](CC(C)C)N(C)C(=O)C[C@@H](C(=O)N2CCCCC2)N(C)C(=O)[C@H](CC(C)C)NC(=O)[C@H](Cc2ccccc2OC)N(C)C1=O` [Compound 259] ([NMeL]I[Sar][Sar][NMePhe(4-Cl)][Sar][Phe(3-I)][Nle][NMePhe(2-OMe)]L[NMeD]-Piperidide; lactam N-11) gave a pIC50 of 7.68. Work on `CC[C@H](C)[C@@H]1NC(=O)[C@H](CC(C)C)N(C)C(=O)C[C@@H](C(=O)N2CCCCC2)N(C)C(=O)[C@H](C(C)C)N(C)C(=O)C2(CCCC2)NC(=O)[C@@H]2CCCN2C(=O)[C@H](CCc2ccccc2)NC(=O)CN(C)C(=O)[C@H](CC2CCCCC2)N(C)C(=O)CN(C)C(=O)CN(C)C1=O` [Compound 265] ([NMeL]I[Sar][Sar][NMeCha][Sar][hPhe]P[Ac5c][NMeV][NMeD]-Piperidide; lactam N-11) yielded a pIC50 of 6.55. In the case of `CC[C@H](C)[C@@H]1NC(=O)[C@H](C)N(C)C(=O)C[C@@H](C(=O)N2CCCCC2)N(C)C(=O)[C@H](C(C)C)N(C)C(=O)C2(CCCC2)NC(=O)[C@@H]2CCCN2C(=O)[C@H](CCc2ccc(C(F)(F)F)c(F)c2)NC(=O)CN(C)C(=O)[C@H](CC2CCCCC2)N(C)C(=O)CN(C)C(=O)CN(C)C1=O` [Compound 266] ([NMeA]I[Sar][Sar][NMeCha][Sar][hPhe(3-F,4-CF3)]P[Ac5c][NMeV][NMeD]-Piperidide; lactam N-11), the pIC50 was 8.34.
